The record followed here is article PMC12452633 (RSC Medicinal Chemistry, 2025).

One experiment has as its target Ku70/80 (Homo sapiens, UniProt P12956+P13010). In words: Ku–DNA binding EMSA. Conditions: for IC50: Ku70/80 (IC50), purified Ku70/80, direct DNA binding activity by EMSA. For orientation: Mobility shift assays separate free from complexed probe on a gel.
A further experiment has as its target DNA-PK (Homo sapiens, UniProt P12956+P13010). In words: DNA-PK phosphoryl-transferase catalytic. Type of experiment: biochemical.
[1] abbreviates: CF3 in place of CH3 on pyrazolone ring.

Ku70/80, sequence (P12956 whole entry): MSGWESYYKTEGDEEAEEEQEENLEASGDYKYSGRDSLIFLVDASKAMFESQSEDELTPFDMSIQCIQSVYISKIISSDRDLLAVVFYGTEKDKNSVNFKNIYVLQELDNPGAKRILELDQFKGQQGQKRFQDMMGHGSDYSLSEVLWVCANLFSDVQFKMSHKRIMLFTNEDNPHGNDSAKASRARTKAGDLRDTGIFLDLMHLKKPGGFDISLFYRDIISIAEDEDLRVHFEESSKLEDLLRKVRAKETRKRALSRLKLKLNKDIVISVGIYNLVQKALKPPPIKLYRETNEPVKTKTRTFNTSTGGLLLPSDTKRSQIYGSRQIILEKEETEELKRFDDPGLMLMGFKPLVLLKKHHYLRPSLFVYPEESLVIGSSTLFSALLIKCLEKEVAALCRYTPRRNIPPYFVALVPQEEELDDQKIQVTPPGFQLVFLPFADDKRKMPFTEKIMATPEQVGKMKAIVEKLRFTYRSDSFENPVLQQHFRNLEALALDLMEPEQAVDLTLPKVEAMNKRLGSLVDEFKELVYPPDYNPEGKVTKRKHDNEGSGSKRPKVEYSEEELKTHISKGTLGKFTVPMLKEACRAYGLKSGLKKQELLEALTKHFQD
Ku70/80, sequence (P13010 whole entry): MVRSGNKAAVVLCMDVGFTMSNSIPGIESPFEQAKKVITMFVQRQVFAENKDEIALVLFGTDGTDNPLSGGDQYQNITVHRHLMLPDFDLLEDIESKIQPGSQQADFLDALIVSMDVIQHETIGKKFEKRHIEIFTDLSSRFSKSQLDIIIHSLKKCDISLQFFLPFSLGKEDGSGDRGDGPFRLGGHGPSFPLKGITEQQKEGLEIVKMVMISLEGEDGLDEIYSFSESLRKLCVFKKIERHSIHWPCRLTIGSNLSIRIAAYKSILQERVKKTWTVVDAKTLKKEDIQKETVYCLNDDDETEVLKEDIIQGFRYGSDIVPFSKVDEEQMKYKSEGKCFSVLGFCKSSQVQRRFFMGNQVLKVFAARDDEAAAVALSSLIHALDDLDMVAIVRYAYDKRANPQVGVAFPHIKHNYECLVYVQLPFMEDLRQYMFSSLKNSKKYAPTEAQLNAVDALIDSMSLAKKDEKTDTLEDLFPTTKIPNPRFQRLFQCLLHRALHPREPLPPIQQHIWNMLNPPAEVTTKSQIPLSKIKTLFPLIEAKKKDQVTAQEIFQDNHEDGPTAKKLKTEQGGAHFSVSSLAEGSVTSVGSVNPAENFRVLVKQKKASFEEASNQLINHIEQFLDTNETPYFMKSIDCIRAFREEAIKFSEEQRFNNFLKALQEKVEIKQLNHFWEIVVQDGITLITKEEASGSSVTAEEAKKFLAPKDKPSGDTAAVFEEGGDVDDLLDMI
DNA-PK, sequence (P12956 whole entry): as the sequence (P12956 whole entry) above
DNA-PK, sequence (P13010 whole entry): as the sequence (P13010 whole entry) above

As a reminder, the IC50 is the concentration that inhibits the measured activity by half. The low end stands for greater potency in that assay, the high end for weaker potency in that assay. `O=C(O)c1cccc(N2N=C(C(F)(F)F)/C(=C/c3ccc(-c4ccc(Cl)c(C(=O)O)c4)o3)C2=O)c1` [Compound 16, (Z)-5-(5-((1-(3-carboxyphenyl)-5-oxo-3-(trifluoromethyl)-1,5-dihydro-4H-pyrazol-4-ylidene)methyl)furan-2-yl)-2-chlorobenzoic acid] yielded a half-inhibitory concentration (IC50) at Ku70/80 of 16.4 ± 3.94 µM.
On to `CC1=NN(c2cccc(C(=O)O)c2)C(=O)/C1=C\c1ccc(-c2ccc(Cl)c(C(=O)NCc3ccccc3)c2)o1` [Compound 37, (Z)-3-(4-((5-(3-(Benzylcarbamoyl)-4-chlorophenyl)furan-2-yl)methylene)-3-methyl-5-oxo-4,5-dihydro-1H-pyrazol-1-yl)benzoic acid], for which the half-maximal inhibitory concentration (IC50) against DNA-PK came to 830 ± 90 nM; at Ku70/80, 8.22 ± 0.45 µM.
For the compound `CC1=NN(c2cccc(C(=O)O)c2)C(=O)/C1=C\c1ccc(-c2ccc(Cl)c(C(=O)NCc3ccccc3Cl)c2)o1` [Compound 38, (Z)-3-(4-((5-(4-Chloro-3-((2-chlorobenzyl)carbamoyl)phenyl)furan-2-yl)methylene)-3-methyl-5-oxo-4,5-dihydro-1H-pyrazol-1-yl)benzoic acid], the results for the IC50 against DNA-PK and at Ku70/80 were 1740 ± 610 nM and 3.55 ± 0.4 µM, respectively.
Take `CC1=NN(c2cccc(C(=O)O)c2)C(=O)/C1=C\c1ccc(-c2ccc(Cl)c(C(=O)NCC3CCCCC3)c2)o1` [Compound 39, (Z)-3-(4-((5-(4-Chloro-3-((cyclohexylmethyl)carbamoyl)phenyl)furan-2-yl)methylene)-3-methyl-5-oxo-4,5-dihydro-1H-pyrazol-1-yl)benzoic acid]: the IC50 at Ku70/80 came to 22.6 ± 4.4 µM.
On to `COc1cccc(NC(=O)c2cc(-c3ccc(/C=C4\C(=O)N(c5cccc(C(=O)O)c5)N=C4C)s3)ccc2Cl)c1` [Compound 40, (Z)-3-(4-((5-(4-Chloro-3-((3-methoxyphenyl)carbamoyl)phenyl)thiophen-2-yl)methylene)-3-methyl-5-oxo-4,5-dihydro-1H-pyrazol-1-yl)benzoic acid], for which the IC50 against DNA-PK is 1720 ± 180 nM; at Ku70/80 it was 7.18 ± 2.24 µM.
Regarding `COc1cccc(NC(=O)c2cc(-c3ccc(/C=C4\C(=O)N(c5ccc(C(=O)O)cc5)N=C4C)s3)ccc2Cl)c1` [Compound 41, (Z)-4-(4-((5-(4-Chloro-3-((3-methoxyphenyl)carbamoyl)phenyl)thiophen-2-yl)methylene)-3-methyl-5-oxo-4,5-dihydro-1H-pyrazol-1-yl)benzoic acid], the 50% inhibitory concentration (IC50) is 530 ± 70 nM at DNA-PK and 9.04 ± 0.36 µM at Ku70/80.
For `CC1=NN(c2cccc(C(=O)O)c2)C(=O)/C1=C\c1ccc(-c2ccc(Cl)c(C(=O)NCC3CC3)c2)s1` [Compound 42, (Z)-3-(4-((5-(4-Chloro-3-((cyclopropylmethyl)carbamoyl)phenyl)thiophen-2-yl)methylene)-3-methyl-5-oxo-4,5-dihydro-1H-pyrazol-1-yl)benzoic acid], in that order: 3040 ± 700 nM and 11.1 ± 0.76 µM.
`CC1=NN(c2cccc(C(=O)O)c2)C(=O)/C1=C\c1ccc(-c2ccc(Cl)c(C(=O)NCc3ccc(F)cc3)c2)s1` [Compound 43, (Z)-3-(4-((5-(4-Chloro-3-((4-fluorobenzyl)carbamoyl)phenyl)thiophen-2-yl)methylene)-3-methyl-5-oxo-4,5-dihydro-1H-pyrazol-1-yl)benzoic acid]: the IC50 is 3240 nM on DNA-PK and 10.1 ± 1.4 µM at Ku70/80.
On the same counts, the results for `COc1cccc(NC(=O)c2cc(-c3ccc(/C=C4\C(=O)N(c5cccc(C(=O)O)c5)N=C4C)[nH]3)ccc2Cl)c1` [Compound 44, (Z)-3-(4-((5-(4-Chloro-3-((3-methoxyphenyl)carbamoyl)phenyl)-1H-pyrrol-2-yl)methylene)-3-methyl-5-oxo-4,5-dihydro-1H-pyrazol-1-yl)benzoic acid] are 1570 ± 730 nM and 9.77 ± 4.16 µM.
Turning to `CC1=NN(c2cccc(C(=O)O)c2)C(=O)/C1=C\c1ccc(-c2ccc(Cl)c(C(=O)Nc3cccc(OC(F)(F)F)c3)c2)[nH]1` [Compound 45, (Z)-3-(4-((5-(4-Chloro-3-((3-(trifluoromethoxy)phenyl)carbamoyl)phenyl)-1H-pyrrol-2-yl)methylene)-3-methyl-5-oxo-4,5-dihydro-1H-pyrazol-1-yl)benzoic acid], the values for the IC50 on DNA-PK and on Ku70/80 were 530 ± 180 nM and 6.9 ± 1 µM, respectively.
Consider `COc1cccc(CNC(=O)c2cc(-c3ccc(/C=C4\C(=O)N(c5ccc(C(=O)O)cc5)N=C4C)o3)ccc2Cl)c1` [Compound 47, (Z)-4-(4-((5-(4-Chloro-3-((3-methoxybenzyl)carbamoyl)phenyl)furan-2-yl)methylene)-3-methyl-5-oxo-4,5-dihydro-1H-pyrazol-1-yl)benzoic acid], for which the IC50 is 480 ± 48 nM on DNA-PK and > 25 µM on Ku70/80.
On the same counts, the results for `CC1=NN(c2ccc(C(=O)O)cc2)C(=O)/C1=C\c1ccc(-c2ccc(Cl)c(C(=O)NCc3ccccc3)c2)o1` [Compound 48, (Z)-4-(4-((5-(3-(Benzylcarbamoyl)-4-chlorophenyl)furan-2-yl)methylene)-3-methyl-5-oxo-4,5-dihydro-1H-pyrazol-1-yl)benzoic acid] are 480 ± 16 nM and 22.4 ± 4.19 µM.
Take `CC1=NN(c2ccc(C(=O)O)cc2)C(=O)/C1=C\c1ccc(-c2ccc(Cl)c(C(=O)NCc3cccnc3)c2)o1` [Compound 49, (Z)-4-(4-((5-(4-Chloro-3-((pyridin-3-ylmethyl)carbamoyl)phenyl)furan-2-yl)methylene)-3-methyl-5-oxo-4,5-dihydro-1H-pyrazol-1-yl)benzoic acid]: the half-inhibitory concentration (IC50) is 2500 nM on DNA-PK and > 25 µM at Ku70/80.
Take `COc1cccc(NC(=O)c2cc(-c3ccc(/C=C4\C(=O)N(c5cccc(C(=O)O)c5)N=C4C(F)(F)F)o3)ccc2Cl)c1` [Compound 50, (Z)-3-(4-((5-(4-Chloro-3-((3-methoxyphenyl)carbamoyl)phenyl)furan-2-yl)methylene)-5-oxo-3-(trifluoromethyl)-4,5-dihydro-1H-pyrazol-1-yl)benzoic acid]: the “increase in DNA-PK inhibitory activity” value on DNA-PK (setting [1]) was ~20 fold. Further, at Ku70/80 (setting [1]), the “increase in Ku inhibitory activity” value amounted to 2 fold. For the same compound, the IC50 on Ku70/80 stood at 3.36 ± 0.52 µM.
On to `O=C(O)c1cccc(N2N=C(C(F)(F)F)/C(=C/c3ccc(-c4ccc(Cl)c(C(=O)NCC5CC5)c4)o3)C2=O)c1` [Compound 51, (Z)-3-(4-((5-(4-Chloro-3-((cyclopropylmethyl)carbamoyl)phenyl)furan-2-yl)methylene)-5-oxo-3-(trifluoromethyl)-4,5-dihydro-1H-pyrazol-1-yl)benzoic acid], for which the results for the IC50 at DNA-PK and on Ku70/80 were 350 nM and 11.4 ± 8.26 µM, respectively.
For the compound `O=C(O)c1cccc(N2N=C(C(F)(F)F)/C(=C/c3ccc(-c4ccc(Cl)c(C(=O)NCc5ccc(F)cc5)c4)o3)C2=O)c1` [Compound 52, (Z)-3-(4-((5-(4-Chloro-3-((4-fluorobenzyl)carbamoyl)phenyl)furan-2-yl)methylene)-5-oxo-3-(trifluoromethyl)-4,5-dihydro-1H-pyrazol-1-yl)benzoic acid], the IC50 amounted to 250 nM at DNA-PK and 9.15 ± 0.68 µM at Ku70/80.
On to `COc1ccc(NC(=O)c2cc(-c3ccc(CC4C(=O)N(c5cccc(C(=O)O)c5)N=C4C)o3)ccc2Cl)cc1OC` (stereo not drawn) [Compound 54, 3-(4-((5-(4-Chloro-3-((3,4-dimethoxyphenyl)carbamoyl)phenyl)furan-2-yl)methyl)-3-methyl-5-oxo-4,5-dihydro-1H-pyrazol-1-yl)benzoic acid], for which the IC50 on DNA-PK came to 1120 ± 170 nM; on Ku70/80, 9.97 ± 0.4 µM.
With `COc1cccc(NC(=O)c2cc(-c3ccc(CC4C(=O)N(c5ccc(C(=O)O)cc5)N=C4C)o3)ccc2Cl)c1` (stereo not drawn) [Compound 55, 4-(4-((5-(4-Chloro-3-((3-methoxyphenyl)carbamoyl)phenyl)furan-2-yl)methyl)-3-methyl-5-oxo-4,5-dihydro-1H-pyrazol-1-yl)benzoic acid], the IC50 on DNA-PK is 808 ± 37 nM; at Ku70/80, 7.67 ± 2.95 µM.
As for `COc1cccc(CNC(=O)c2cc(-c3ccc(CC4C(=O)N(c5ccc(C(=O)O)cc5)N=C4C)o3)ccc2Cl)c1` (stereo not drawn) [Compound 56, 4-(4-((5-(4-Chloro-3-((3-methoxybenzyl)carbamoyl)phenyl)furan-2-yl)methyl)-3-methyl-5-oxo-4,5-dihydro-1H-pyrazol-1-yl)benzoic acid], the values for the half-inhibitory concentration (IC50) against DNA-PK and on Ku70/80 were 490 ± 80 nM and 12.4 ± 3.8 µM, respectively.
For `COc1cccc(NC(=O)c2cc(-c3ccc(CC4C(=O)N(c5cccc(C(=O)O)c5)N=C4C)s3)ccc2Cl)c1` (stereo not drawn) [Compound 57, 3-(4-((5-(4-Chloro-3-((3-methoxyphenyl)carbamoyl)phenyl)thiophen-2-yl)methyl)-3-methyl-5-oxo-4,5-dihydro-1H-pyrazol-1-yl)benzoic acid], in that order: 400 ± 40 nM and 6.09 ± 0.36 µM.
On the same counts, the results for `CC1=NN(c2cccc(C(=O)O)c2)C(=O)C1Cc1ccc(-c2ccc(Cl)c(C(=O)NCc3ccc(F)cc3)c2)s1` (stereo not drawn) [Compound 60, 3-(4-((5-(4-Chloro-3-((4-fluorobenzyl)carbamoyl)phenyl)thiophen-2-yl)methyl)-3-methyl-5-oxo-4,5-dihydro-1H-pyrazol-1-yl)benzoic acid] are 2660 ± 1740 nM and 4.1 ± 0.3 µM.
With `O=C(O)c1cccc(N2N=C(C(F)(F)F)C(Cc3ccc(-c4ccc(Cl)c(C(=O)NCC5CC5)c4)o3)C2=O)c1` (stereo not drawn) [Compound 62, 3-(4-((5-(4-Chloro-3-((cyclopropylmethyl)carbamoyl)phenyl)furan-2-yl)methyl)-5-oxo-3-(trifluoromethyl)-4,5-dihydro-1H-pyrazol-1-yl)benzoic acid], the 50% inhibitory concentration (IC50) on Ku70/80 turned out to be 14.2 ± 0.21 µM.
For `CC1=NN(c2ccc(S(N)(=O)=O)cc2)C(=O)/C1=C\c1ccc(-c2ccc(Cl)c(C(=O)NCC3CC3)c2)o1` [Compound 68, (Z)-2-Chloro-N-(cyclopropylmethyl)-5-(5-((3-methyl-5-oxo-1-(4-sulfamoylphenyl)-1,5-dihydro-4H-pyrazol-4-ylidene)methyl)furan-2-yl)benzamide], the IC50 at Ku70/80 is > 25 µM.
As for `COc1cccc(NC(=O)c2cc(-c3ccc(/C=C4\C(=O)N(c5cccc(C#N)c5)N=C4C)o3)ccc2Cl)c1` [Compound 74, (Z)-2-chloro-5-(5-((1-(3-cyanophenyl)-3-methyl-5-oxo-1,5-dihydro-4H-pyrazol-4-ylidene)methyl)furan-2-yl)-N-(3-methoxyphenyl)benzamide], at Ku70/80, the half-inhibitory concentration (IC50) is > 25 µM. Moreover, the “Ku inhibitory activity (qualitative)” value at Ku70/80 (carboxylic acid replaced by nitrile) is given as “complete abolition of Ku inhibitory activity”.
